Results taken from patent US5202315A, “Cephalosporin compounds” (Lucky, Ltd., priority 1989, dated 1993).
≈ marks a conversion by molar mass, not a printed value.

Tests used:
Type in all cases: cell-based
[1] = tested on: Providencia rettgeri ATCC 9250; test: Antibacterial activity, MIC; conditions: ATCC9250, agar two-fold dilution, 37° C., 20 hours
Outline: (§1)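 Incubation at 37 °C for 20 h followed inoculation of 2 μl standard strain (10^7 CFU/ml) onto agar carrying the compound. Compound was incorporated into Mueller-Hinton agar as two-fold serial dilutions.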

[2] = tested on: Pseudomonas aeruginosa ATCC 27853; test: Antibacterial activity, MIC; conditions: ATCC27853, ATCC 27853, agar two-fold dilution, 37° C., 20 hours, read-out: MIC
Outline: as §1

[3] = tested on: Bacillus cereus ATCC 11778; test: Antibacterial activity, MIC; conditions: ATCC11778, ATCC 11778, agar two-fold dilution, 37° C., 20 hours, read-out: MIC
Outline: as §1

[4] = tested on: Pseudomonas aeruginosa ATCC 25619; test: Antibacterial activity, MIC; conditions: ATCC25619, ATCC 25619, agar two-fold dilution, 37° C., 20 hours, read-out: MIC
Outline: as §1

[5] = tested on: Enterobacter aerogenes ATCC 29751; test: Antibacterial activity, MIC; conditions: Klebsiella aerogenes, ATCC29751; ATCC 29751; agar two-fold dilution, 37° C., 20 hours; read-out: MIC
Outline: as §1

[6] = tested on: Staphylococcus aureus ATCC 6538p; test: Antibacterial activity, MIC; conditions: ATCC6538P, ATCC 6538p, agar two-fold dilution, 37° C., 20 hours, read-out: MIC
Outline: as §1

[7] = tested on: Proteus vulgaris ATCC 6059; test: Antibacterial activity, MIC; conditions: ATCC6059, ATCC 6059, agar two-fold dilution, 37° C., 20 hours, read-out: MIC
Outline: as §1

[8] = tested on: Escherichia coli ATCC 10536; test: Antibacterial activity, MIC; conditions: ATCC10536, agar two-fold dilution, 37° C., 20 hours
Outline: as §1

[9] = tested on: Serratia marcescens ATCC 27117; test: Antibacterial activity, MIC; conditions: ATCC27117, ATCC 27117, agar two-fold dilution, 37° C., 20 hours, read-out: MIC
Outline: as §1

[10] = tested on: Escherichia coli ATCC 25922; test: Antibacterial activity, MIC; conditions: ATCC25922, agar two-fold dilution, 37° C., 20 hours
Outline: as §1

[11] = tested on: Proteus mirabilis ATCC 25933; test: Antibacterial activity, MIC; conditions: ATCC25933, ATCC 25933, agar two-fold dilution, 37° C., 20 hours, read-out: MIC
Outline: as §1

[12] = tested on: Salmonella typhimurium ATCC 14028; test: Antibacterial activity, MIC; conditions: Salmonella enterica; ATCC 14028; agar two-fold dilution, 37° C., 20 hours; read-out: MIC
Outline: as §1

[13] = tested on: Enterobacter cloacae ATCC 27508; test: Antibacterial activity, MIC; conditions: ATCC27508, ATCC 27508, agar two-fold dilution, 37° C., 20 hours, read-out: MIC
Outline: as §1

[14] = tested on: Acinetobacter calcoaceticus ATCC 15473; test: Antibacterial activity, MIC; conditions: ATCC15473, ATCC 15473, agar two-fold dilution, 37° C., 20 hours, read-out: MIC
Outline: as §1

[15] = tested on: Staphylococcus aureus ATCC 10537; test: Antibacterial activity, MIC; conditions: ATCC10537, ATCC 10537, agar two-fold dilution, 37° C., 20 hours, read-out: MIC
Outline: as §1

[16] = tested on: Pseudomonas aeruginosa ATCC 10145; test: Antibacterial activity, MIC; conditions: ATCC10145, ATCC 10145, agar two-fold dilution, 37° C., 20 hours, read-out: MIC
Outline: as §1

[17] = tested on: Micrococcus luteus ATCC 9341; test: Antibacterial activity, MIC; conditions: ATCC9341, ATCC 9341, agar two-fold dilution, 37° C., 20 hours, read-out: MIC
Outline: as §1

[18] = tested on: Bacillus megaterium ATCC 9885; test: Antibacterial activity, MIC; conditions: Priestia megaterium, ATCC9885; ATCC 9885; agar two-fold dilution, 37° C., 20 hours; read-out: MIC
Outline: as §1

[19] = tested on: Citrobacter freundii ATCC 8090; test: Antibacterial activity, MIC; conditions: ATCC8090, ATCC 8090, agar two-fold dilution, 37° C., 20 hours, read-out: MIC
Outline: as §1

[20] = tested on: Morganella morganii ATCC 8076h; test: Antibacterial activity, MIC; conditions: ATCC8076H, agar two-fold dilution, 37° C., 20 hours
Outline: as §1

[21] = tested on: Staphylococcus epidermidis ATCC 12228; test: Antibacterial activity, MIC; conditions: ATCC12228, ATCC 12228, agar two-fold dilution, 37° C., 20 hours, read-out: MIC
Outline: as §1

[22] = tested on: Streptococcus faecalis ATCC 29212; test: Antibacterial activity, MIC; conditions: Enterococcus faecalis, ATCC29212; ATCC 29212; agar two-fold dilution, 37° C., 20 hours; read-out: MIC
Outline: as §1

[23] = tested on: Shigella sonnei ATCC 11060; test: Antibacterial activity, MIC; conditions: ATCC11060, ATCC 11060, agar two-fold dilution, 37° C., 20 hours, read-out: MIC
Outline: as §1

[24] = tested on: Shigella flexneri ATCC 11836; test: Antibacterial activity, MIC; conditions: ATCC11836, agar two-fold dilution, 37° C., 20 hours
Outline: as §1

[25] = tested on: Klebsiella pneumoniae ATCC 10031; test: Antibacterial activity, MIC; conditions: ATCC10031, ATCC 10031, agar two-fold dilution, 37° C., 20 hours, read-out: MIC
Outline: as §1

Klebsiella pneumoniae = test: Antibacterial activity against clinically isolated strains, MIC; conditions: 10 clinical isolates, broth microdilution test; for MIC90: read-out: MIC 90%
Pseudomonas aeruginosa = test: as above; conditions: 54 clinical isolates, broth microdilution test; for MIC90: read-out: MIC 90%
[26] = tested on: Staphylococcus aureus methicillin resistant; test: as above; conditions: methicillin resistant, 7 clinical isolates, broth microdilution test; for MIC90: read-out: MIC 90%
Escherichia coli = test: as above; conditions: 38 clinical isolates, broth microdilution test
[27] = tested on: Staphylococcus aureus methicillin susceptible; test: as above; conditions: methicillin susceptible, 42 clinical isolates, broth microdilution test; for MIC90: read-out: MIC 90%

SMILES: C#CCO/N=C(\C(=O)NC1C(=O)N2C(C(=O)[O-])=C(CSc3nc(N)cc(N)[n+]3N)CSC12)c1csc(N)n1 (centres unmarked) [Compound I-18]
- MIC [1]: ≤ 0.008 µg/mL
- MIC [2]: 2 µg/mL (≈ 3.47 µM)
- MIC [3]: 8 µg/mL (≈ 13.9 µM)
- MIC [4]: 0.5 µg/mL (≈ 0.867 µM)
- MIC [5]: 0.25 µg/mL (≈ 0.434 µM)
- MIC [6]: 0.25 µg/mL (≈ 0.434 µM)
- MIC [7]: 0.13 µg/mL (≈ 0.225 µM)
- MIC [8]: 0.13 µg/mL (≈ 0.225 µM)
- MIC [9]: 0.13 µg/mL (≈ 0.225 µM)
- MIC [10]: 0.063 µg/mL (≈ 0.109 µM)
- MIC [11]: 0.13 µg/mL (≈ 0.225 µM)
- MIC [12]: 0.25 µg/mL (≈ 0.434 µM)
- MIC [13]: ≤ 0.008 µg/mL
- MIC [14]: 2 µg/mL (≈ 3.47 µM)
- MIC [15]: 0.25 µg/mL (≈ 0.434 µM)
- MIC [16]: 4 µg/mL (≈ 6.94 µM)
- MIC [17]: 0.013 µg/mL (≈ 0.0225 µM)
- MIC [18]: 0.063 µg/mL (≈ 0.109 µM)
- MIC [19]: 0.063 µg/mL (≈ 0.109 µM)
- MIC [20]: ≤ 0.008 µg/mL
- MIC [21]: 0.063 µg/mL (≈ 0.109 µM)
- MIC [22]: 32 µg/mL (≈ 55.5 µM)
- MIC [23]: 0.13 µg/mL (≈ 0.225 µM)
- MIC [24]: 0.016 µg/mL (≈ 0.0277 µM)
- MIC [25]: ≤ 0.008 µg/mL
- MIC (Klebsiella pneumoniae): 0.13 µg/mL (≈ 0.225 µM)
- MIC50 (Klebsiella pneumoniae): 0.13 µg/mL (≈ 0.225 µM)
- MIC90 (Klebsiella pneumoniae): 0.13 µg/mL (≈ 0.225 µM)
- MIC50 (Pseudomonas aeruginosa): 4 µg/mL (≈ 6.94 µM)
- MIC90 (Pseudomonas aeruginosa): 8 µg/mL (≈ 13.9 µM)
- MIC50 [26]: 128 µg/mL (≈ 222 µM)
- MIC90 [26]: > 128 µg/mL
- MIC50 (Escherichia coli): 0.13 µg/mL (≈ 0.225 µM)
- MIC90 (Escherichia coli): 0.25 µg/mL (≈ 0.434 µM)
- MIC50 [27]: 0.25 µg/mL (≈ 0.434 µM)
- MIC90 [27]: 0.25 µg/mL (≈ 0.434 µM)

SMILES: C#CCO/N=C(\C(=O)NC1C(=O)N2C(C(=O)[O-])=C(CSc3nc(N)cc(N)[n+]3C)CSC12)c1csc(N)n1 (centres unmarked) [Compound I-46]
- MIC [1]: ≤ 0.008 µg/mL
- MIC [2]: 2 µg/mL (≈ 3.47 µM)
- MIC [3]: 8 µg/mL (≈ 13.9 µM)
- MIC [4]: 0.5 µg/mL (≈ 0.869 µM)
- MIC [5]: 0.25 µg/mL (≈ 0.434 µM)
- MIC [6]: 0.13 µg/mL (≈ 0.226 µM)
- MIC [7]: 0.13 µg/mL (≈ 0.226 µM)
- MIC [8]: 0.063 µg/mL (≈ 0.109 µM)
- MIC [9]: 0.13 µg/mL (≈ 0.226 µM)
- MIC [10]: 0.063 µg/mL (≈ 0.109 µM)
- MIC [11]: 0.063 µg/mL (≈ 0.109 µM)
- MIC [12]: 0.25 µg/mL (≈ 0.434 µM)
- MIC [13]: ≤ 0.008 µg/mL
- MIC [14]: 2 µg/mL (≈ 3.47 µM)
- MIC [15]: 0.13 µg/mL (≈ 0.226 µM)
- MIC [16]: 4 µg/mL (≈ 6.95 µM)
- MIC [17]: 0.016 µg/mL (≈ 0.0278 µM)
- MIC [18]: 0.063 µg/mL (≈ 0.109 µM)
- MIC [19]: 0.063 µg/mL (≈ 0.109 µM)
- MIC [20]: ≤ 0.008 µg/mL
- MIC [21]: 0.031 µg/mL (≈ 0.0539 µM)
- MIC [22]: 16 µg/mL (≈ 27.8 µM)
- MIC [23]: 0.063 µg/mL (≈ 0.109 µM)
- MIC [24]: 0.016 µg/mL (≈ 0.0278 µM)
- MIC [25]: ≤ 0.008 µg/mL
- MIC50 (Klebsiella pneumoniae): 0.13 µg/mL (≈ 0.226 µM)
- MIC90 (Klebsiella pneumoniae): 0.13 µg/mL (≈ 0.226 µM)
- MIC50 (Pseudomonas aeruginosa): 4 µg/mL (≈ 6.95 µM)
- MIC90 (Pseudomonas aeruginosa): 8 µg/mL (≈ 13.9 µM)
- MIC50 [26]: > 32 µg/mL
- MIC90 [26]: > 32 µg/mL
- MIC50 (Escherichia coli): 0.13 µg/mL (≈ 0.226 µM)
- MIC90 (Escherichia coli): 0.25 µg/mL (≈ 0.434 µM)
- MIC50 [27]: 0.25 µg/mL (≈ 0.434 µM)
- MIC90 [27]: 0.25 µg/mL (≈ 0.434 µM)
